34 molecules from patent US8470889B2 (TRT Pharma Inc., priority 2008, dated 2013) can be followed below.

Each structure is given as a SMILES string. Read-outs that look alike come from different tables or passages of the source.

The test system of series [1] is PC-3 cells.
Description: (§2) MDA PCa 2b was seeded at the same density in medium BRFF-HPC1 (Athena Enzyme Systems, Baltimore, Md., USA) supplemented with 20% FBS. After overnight incubation, the medium was changed to a fresh medium containing different concentrations of test compounds diluted from stock DMSO solution. The final concentration of DMSO is 0.5%. After 72 h of incubation with test compounds, 20 μL of 3-(4,5-dimethyl thiazol-2-yl)-2,5-diphenyltetrazolium bromide (MTT) solution (5 mg/mL in PBS) were added to each well and incubated further for 2 h. Next, the supernatant was aspirated and the MTT formazan formed by metabolically viable cells was dissolved in 100 μL of isopropanol. The plates were mixed for 30 min, and the absorbance was measured at 600 nm on a plate reader (FLUOstar OPTIMA, BMG LabTech). All samples were in triplicate. The IC50 values were determined from dose-response curves by nonlinear regression using PRISM v5.00 (GraphPad Software Inc, La Jolla, Calif., USA).
(§3) The in vitro cytotoxicity of 1-20 were evaluated by MTT assays in a panel of prostate cancer cell lines, including LNCaP, MDA PCa 2b, 22Rv1, C4-2B and PC-3.
Series [2] deals with LNCaP cells.
In series [3] the test system is 22Rv1 cells.
Series [4] concerns C4-2B cells.
Description: as §2, §3
Series [5] has as its system LNCaP cells. The experiment in a line: MTT cell growth inhibition, LNCaP.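 Note: MTT formazan absorbance at 600 nm read after 72 h of compound exposure, IC50 fitted by nonlinear regression of dose-response curves, samples run in triplicate.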
For series [6], the system named is 22Rv1 cells. The experiment in a line: MTT cell growth inhibition, 22Rv1. The settings on record: MTT, 72 h.
A further series concerns MDA-MB-231 cells. Briefly: Growth inhibition, MDA-MB-231 breast cancer cells. The format is cell-based. The settings on record: for IC50: Homo sapiens, MDA-MB-231, Table 10, read-out: Cytotoxicity, IC50 (μM) MDA-M B231. From the text: (§1) All samples were in triplicate.
The next series deals with H-1975 cells. The experiment in a line: Growth inhibition, H-1975 lung cancer cells. The format is cell-based. Particulars: for IC50: Homo sapiens, NCI-H1975, Table 10, read-out: Cytotoxicity, IC50 (μM) H-1975.
Description: as §1

The subject of series [7] is PC-3 cells. Briefly: MTT cell growth inhibition, PC-3.
Description: as §2, §3
The test system of series [8] is C4-2B cells. Briefly: MTT cell growth inhibition, C4-2B.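 Note: cells treated with a dilution series for 72 h, then MTT added and absorbance read at 600 nm, IC50 fitted from dose-response curves by nonlinear regression.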
Description: as §2, §3
The next series has as its system MCF-7 cells. Briefly: Growth inhibition, MCF-7 breast cancer cells. The format is cell-based. The settings on record: for IC50: Homo sapiens, MCF7, Table 10, read-out: Cytotoxicity, IC50 (μM) MCF-7.
Description: as §1

Description for MDA PCa 2b cells: as §2, §3

The term IC50 denotes the point on the concentration scale where inhibition reaches its midpoint. Regarding `CC1=C(/C=C/C(=O)/C=C/c2c(F)cccc2C(F)(F)F)C(C)(C)CCC1O` (racemic) [Compound B37], the IC50 was 8.8 µM in the series on PC-3 cells [1], 4.9 µM in the series on LNCaP cells [2] and 8.9 µM in the series with 22Rv1 cells [3].

`CC1=C(/C=C/C(=O)/C=C/c2cccc(F)c2)C(C)(C)CCC1O` (racemic) [Compound B30]: the IC50 in the series on PC-3 cells [1] worked out at 16 µM; in the series on LNCaP cells [2], 4.4 µM; with 22Rv1 cells [3] it was 5.6 µM.

Take `CC1=C(/C=C/C(=O)/C=C/c2cc(C(F)(F)F)ccc2C(F)(F)F)C(C)(C)CCC1O` (racemic) [Compound B27]: the values for the IC50 in the series with PC-3 cells [1], with LNCaP cells [2] and in the series on MDA PCa 2b cells were 1.9 µM, 3.2 µM and 4 µM, respectively.

With `CC1=C(/C=C/C(=O)/C=C/c2ccc([N+](=O)[O-])cc2)C(C)(C)CCC1O` (racemic) [Compound B41], the IC50 in the series on PC-3 cells [1] was found to be 15 µM; with LNCaP cells [2], 4.2 µM; in the series with 22Rv1 cells [3], 4.1 µM.

In the case of `CC1=C(/C=C/C(=O)/C=C/c2ccccc2)C(C)(C)CCC1O` (racemic) [Compound B23], the IC50 in the series on C4-2B cells [4] was determined as 1.8 µM; with PC-3 cells [1], 15.5 µM; in the series with LNCaP cells [2], 5.8 µM; in the series on 22Rv1 cells [3] it was 8 µM; with MDA PCa 2b cells, 12.6 µM.

As to `CC1=C(/C=C/C(=O)/C=C/c2ccc(F)cc2)C(C)(C)CCC1O` (racemic) [Compound B31], the IC50 with C4-2B cells [4] is 4 µM; with PC-3 cells [1], 6.2 µM; in the series on LNCaP cells [2] it was 3.9 µM; with 22Rv1 cells [3], 7.5 µM.

In the case of `CC1=C(/C=C/C(=O)/C=C/c2ccccc2F)C(C)(C)CCC1O` (racemic) [Compound B29], the IC50 is 10.4 µM in the series with PC-3 cells [1], 2.9 µM in the series on LNCaP cells [2] and 3.3 µM in the series with 22Rv1 cells [3].

For the molecule `CC1=CCCC(C)(C)C1/C=C/C(=O)/C=C/c1cccc(C)c1` (racemic) [Compound B22], the IC50 in the series on C4-2B cells [4] was found to be 6.2 µM; with PC-3 cells [1] it was 5.9 µM; in the series with LNCaP cells [2], 12.2 µM; in the series on 22Rv1 cells [3], 15.2 µM.

As for `CC1=C(/C=C/C(=O)/C=C/c2cc(C(F)(F)F)ccc2F)C(C)(C)CCC1O` (racemic) [Compound B36], the IC50 with PC-3 cells [1] was 3.6 µM; in the series on LNCaP cells [2], 1.7 µM; with 22Rv1 cells [3] it was 2 µM.

With `COc1cc(/C=C/C(=O)CC(=O)/C=C/c2ccc(O)c(OC)c2)ccc1O` [Curcumin, reference compound], the IC50 in the series on LNCaP cells [5] (read-out: Cellular IC50 (μM) LNCaP, Table 2, 72 h) is 8.5 µM; with 22Rv1 cells [6] (read-out: Cellular IC50 (μM) 22Rv1, Table 2), 18.3 µM; in the series with MDA-MB-231 cells, 15.7 µM; in the series on H-1975 cells, more than 25 µM; in the series with PC-3 cells [7] (read-out: Cellular IC50 (μM) PC-3, Table 2, 72 h, max tested 50 μM (β-ionone 150 μM)), 16.8 µM; in the series on C4-2B cells [8] (read-out: Cellular IC50 (μM) C4-2B, Table 2, 72 h), 6.1 µM. In addition, in the series on MCF-7 cells, the IC50 worked out at 13.6 µM.

On to `CC1=C(/C=C/C(=O)/C=C/c2cccc(C)c2)C(C)(C)CCC1O` (racemic) [Compound B38], for which the IC50 is 6.2 µM in the series with PC-3 cells [1], 4.1 µM in the series on LNCaP cells [2], 4.4 µM in the series with 22Rv1 cells [3] and 19 µM in the series with MDA PCa 2b cells.

`CC1=CCCC(C)(C)C1/C=C/C(=O)/C=C/c1ccccc1F` (racemic) [Compound B19]: the IC50 in the series on C4-2B cells [4] worked out at 6 µM; with PC-3 cells [1], 4.8 µM; in the series with LNCaP cells [2], 1.6 µM; in the series on 22Rv1 cells [3] it was 9.4 µM; in the series on MDA PCa 2b cells, 8.3 µM.

On to `CC1=CCCC(C)(C)C1/C=C/C(=O)/C=C/c1cccc(C(F)(F)F)c1` (stereo not shown) [Compound B17, (1E,4E)-1-(3-(trifluoromethyl)phenyl)-5-(2,6,6-trimethylcyclohex-2-enyl)penta-1,4-dien-3-one], for which the IC50 in the series on C4-2B cells [4] (human, 72 h) amounted to 4.4 µM; in the series on PC-3 cells [1] (human, 72 h) it was 5.2 µM; in the series with LNCaP cells [2] (human, 72 h), 1 µM; in the series on 22Rv1 cells [3] (human, 72 h), 2.9 µM; with MDA PCa 2b cells (human, 72 h), 4.4 µM.

`CC1=C(/C=C/C(=O)/C=C/c2ccc(C(F)(F)F)cc2F)C(C)(C)CCC1O` (racemic) [Compound B35]: the IC50 came to 4.6 µM in the series on PC-3 cells [1], 2.6 µM in the series on LNCaP cells [2] and 3.8 µM in the series on 22Rv1 cells [3].

`CC1=C(/C=C/C(=O)/C=C/c2cccc([N+](=O)[O-])c2)C(C)(C)CCC1O` (racemic) [Compound B40]: the IC50 worked out at 5.8 µM in the series on PC-3 cells [1], 2 µM in the series on LNCaP cells [2], 1.9 µM in the series with 22Rv1 cells [3] and 6 µM in the series with MDA PCa 2b cells.

As to `CC1=C(/C=C/C(=O)/C=C/c2ccc(C(F)(F)F)cc2)C(C)(C)CCC1O` (racemic) [Compound B26], the IC50 in the series on PC-3 cells [1] was 10.2 µM; in the series on LNCaP cells [2], 3 µM; with 22Rv1 cells [3] it was 3.2 µM; with MDA PCa 2b cells it was 9.3 µM.

As to `CC1=CCCC(C)(C)C1/C=C/C(=O)/C=C/c1cc(C(F)(F)F)ccc1F` (racemic) [Compound B20], the IC50 with C4-2B cells [4] was 4.7 µM; in the series on PC-3 cells [1] it was 3.1 µM; with LNCaP cells [2], 1.7 µM; in the series on 22Rv1 cells [3], 3.5 µM; in the series on MDA PCa 2b cells, 3 µM.

Take `COc1ccc(/C=C/C(=O)/C=C/C2=C(C)CCCC2(C)C)cc1OC` [Compound B3]: the IC50 in the series with PC-3 cells [1] came out at 42 µM; with LNCaP cells [2], 9.5 µM.

In the case of `CC1=C(/C=C/C(=O)/C=C/c2ccc(F)c(C(F)(F)F)c2)C(C)(C)CCC1O` (racemic) [Compound B32], the IC50 with C4-2B cells [4] came to 7.3 µM; in the series with PC-3 cells [1], 7.3 µM; with LNCaP cells [2] it was 2.2 µM; with 22Rv1 cells [3] it was 3.2 µM; with MDA PCa 2b cells, 10 µM.

Turning to `CC1=C(/C=C/C(=O)/C=C/c2cccc([N+](=O)[O-])c2)C(C)(C)CCC1` [Compound B11], the IC50 with PC-3 cells [1] stood at 10 µM; with LNCaP cells [2], 2.7 µM.

For `CC1=C(/C=C/C(=O)/C=C/c2ccccc2C(F)(F)F)C(C)(C)CCC1O` (racemic) [Compound B24], the IC50 turned out to be 3.7 µM in the series with PC-3 cells [1], 2.9 µM with LNCaP cells [2], 2.3 µM with 22Rv1 cells [3] and 2.9 µM with MDA PCa 2b cells.

For `CC1=C(/C=C/C(=O)/C=C/c2cc(C(F)(F)F)cc(C(F)(F)F)c2)C(C)(C)CCC1` [Compound B7], the IC50 in the series on PC-3 cells [1] is 7.2 µM; with LNCaP cells [2], 8.7 µM.

For the molecule `CC1=C(/C=C/C(=O)/C=C/c2ccccc2F)C(C)(C)CCC1` [Compound B8], the IC50 in the series on PC-3 cells [1] turned out to be 22.1 µM; in the series with LNCaP cells [2] it was 10.7 µM.

Regarding `CC1=CCCC(C)(C)C1/C=C/C(=O)/C=C/c1cccc([N+](=O)[O-])c1` (racemic) [Compound B21], the IC50 in the series with C4-2B cells [4] worked out at 4 µM; in the series with PC-3 cells [1], 2.9 µM; in the series with LNCaP cells [2] it was 3.3 µM; with 22Rv1 cells [3], 4.7 µM; with MDA PCa 2b cells it was 5.9 µM.

As for `CCn1c2ccccc2c2cc(/C=C/C(O)=C/C(=O)/C=C/C3=C(C)CCCC3(C)C)ccc21` [Compound 9], the IC50 with LNCaP cells [5] (read-out: IC50 (μM) LNCaP, Table 1, 72 h) was 9.9 µM; with 22Rv1 cells [6] (read-out: IC50 (μM) 22Rv1, Table 1) it was 4.1 µM; in the series with MDA-MB-231 cells, 11.7 µM; with H-1975 cells, 20.9 µM; with C4-2B cells [8] (read-out: IC50 (μM) C4-2B, Table 1, 72 h), 7.4 µM; in the series on MCF-7 cells, 9.3 µM. Moreover, in the series with MDA-MB-231 cells, the “effect in MDA-MB-231 breast cancer cell line” value is reported as “effective”. The “effect in H-1975 lung cancer cell line” value in the series with H-1975 cells was “effective”. For the same molecule, in the series with PC-3 cells [7] (Table 1, 72 h, maximum tested concentration 50 μM), the “IC50 (μM) PC-3” value is on record as “Inactive^c”. Besides, the “effect in MCF-7 breast cancer cell line” value with MCF-7 cells was “effective”.

As to `CC1=C(/C=C/C(=O)/C=C/c2cccc(C#N)c2)C(C)(C)CCC1O` (racemic) [Compound B39], the IC50 in the series with PC-3 cells [1] is 7.2 µM; in the series on LNCaP cells [2] it was 1.8 µM; with 22Rv1 cells [3], 2.2 µM.

As for `COc1cccc(/C=C/C(=O)/C=C/C2=C(C)C(O)CCC2(C)C)c1` (racemic) [Compound B42], the IC50 was 6.5 µM in the series with PC-3 cells [1] and 4.9 µM in the series on LNCaP cells [2].

Regarding `CC1=C(/C=C/C(=O)/C=C/c2ccc(C(F)(F)F)cc2)C(C)(C)CCC1` [Compound B6], the IC50 amounted to 12 µM with PC-3 cells [1] and 9.1 µM in the series on LNCaP cells [2].

Consider `CCOc1ccc(/C=C/C(=O)/C=C/C2=C(C)CCCC2(C)C)cc1OCC` [Compound B4], for which the IC50 in the series on PC-3 cells [1] is more than 50 µM; in the series on LNCaP cells [2] it was 8.2 µM.

With `CC1=C(/C=C/C(=O)/C=C/c2cccc(C(F)(F)F)c2F)C(C)(C)CCC1O` (racemic) [Compound B34], the IC50 in the series with PC-3 cells [1] was found to be 2.1 µM; with LNCaP cells [2], 1.1 µM.

Regarding `CC1=C(/C=C/C(=O)/C=C/c2cc(C(F)(F)F)cc(C(F)(F)F)c2)C(C)(C)CCC1O` (racemic) [Compound B28], the IC50 in the series on PC-3 cells [1] was found to be 7 µM; in the series with LNCaP cells [2], 2.1 µM; with 22Rv1 cells [3], 2.2 µM; with MDA PCa 2b cells it was 3.5 µM.

Consider `CC1=C(/C=C/C(=O)/C=C/c2cc(F)cc(C(F)(F)F)c2)C(C)(C)CCC1O` (racemic) [Compound B33], for which the IC50 came out at 3 µM with PC-3 cells [1], 1.1 µM with LNCaP cells [2] and 2.4 µM with 22Rv1 cells [3].

With `CC1=CCCC(C)(C)C1/C=C/C(=O)/C=C/c1ccc(C(F)(F)F)cc1` (racemic) [Compound B18], the IC50 was 5.2 µM in the series with C4-2B cells [4]; 7.9 µM in the series with PC-3 cells [1]; 4.7 µM in the series on LNCaP cells [2]; 3.3 µM in the series on 22Rv1 cells [3]; 7 µM in the series with MDA PCa 2b cells.

With `CC1=CCCC(C)(C)C1/C=C/C(=O)/C=C/c1ccccc1C(F)(F)F` (racemic) [Compound B16], the IC50 in the series with C4-2B cells [4] was found to be 11.7 µM; in the series with PC-3 cells [1], 19 µM; in the series with LNCaP cells [2] it was 22.6 µM; in the series with 22Rv1 cells [3], 18.4 µM.
